Drawing on patent publication US9133115B2 (ACHILLION PHARMACEUTICALS, INC., priority 2008, dated 2015), this text covers EC50 for 19 compounds.

Molecules are shown by their SMILES. A value given as a limit tells only on which side of the number the result lay.

By EC50 is commonly meant the concentration giving half of the maximal effect.

The test system of the assay is HCV replicon. The experiment in a line: HCV replicon replication assay (NPT ELISA) in Huh-7 replicon-containing cells. The class given is cell-based. The conditions noted are these: Hepatitis C virus, 72 h; HCV replicon in Huh-7 cells, three days incubation; read-out: EC50. A digest of the protocol: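 Huh-7 cells carrying a bicistronic HCV replicon (HCV-IRES-neo, EMCV-IRES-driven NS3–NS5B, 3′-NTR) were seeded at 6000-7500 cells/well, grown 24 h to 60-70% confluence, then treated with graded compound concentrations. Replication was read as NPT level by capture ELISA (rabbit anti-NPTII, Eu-N1 secondary); interferon alpha served as positive control.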
Consider `C=C[C@@H]1C[C@]1(NC(=O)[C@@H]1C[C@@H](Oc2cc(-c3ccccc3)nc3cc(OC)ccc23)CN1C(=O)[C@@H](CC(=O)N1CCC2(CC1)OCCO2)C(C)(C)C)C(=O)NS(=O)(=O)C1CC1` [Compound 75, (2S,4R)-1-((2S)-2-tert-butyl-4-oxo-4-(1,4-dioxa-8-azaspiro[4.5]decan-8-yl)butanoyl)-N-((1R,2S)-1-(cyclopropylsulfonyl-carbamoyl)-2-vinylcyclopropyl)-4-(7-methoxy-2-phenylquinolin-4-yloxy)pyrrolidine-2-carboxamide], for which the EC50 was < 1000 nM. Turning to `C=C[C@@H]1C[C@]1(NC(=O)[C@@H]1C[C@@H](Oc2cc(-c3ccccc3)nc3cc(OC)ccc23)CN1C(=O)[C@@H](CC(=O)N1CCC(CNC(=O)OC(C)(C)C)CC1)C(C)(C)C)C(=O)NS(=O)(=O)C1CC1` [Compound 76, tert-butyl (1-((S)-3-((2S,4R)-2-((1R,2S)-1-(cyclopropylsulfonyl-carbamoyl)-2-vinylcyclopropyl-carbamoyl)-4-(7-methoxy-2-phenylquinolin-4-yloxy)pyrrolidine-1-carbonyl)-4,4-dimethylpentano-yl)piperidin-4-yl)methylcarbamate], the 50% effective concentration (EC50) is < 1000 nM.

In the case of `C=C[C@@H]1C[C@]1(NC(=O)[C@@H]1C[C@@H](Oc2cc(-c3ccccc3)nc3cc(OC)ccc23)CN1C(=O)[C@@H](CC(=O)N1CCCCCC1)C(C)(C)C)C(=O)NS(=O)(=O)C1CC1` [Compound 77, (2S,4R)-1-((S)-4-(azepan-1-yl)-2-tert-butyl-4-oxobutanoyl)-N-((1R,2S)-1-(cyclopropyl-sulfonylcarbamoyl)-2-vinylcyclopropyl)-4-(7-methoxy-2-phenylquinolin-4-yloxy)pyrrolidine-2-carboxamide], the EC50 was < 1000 nM. The same measure for `C=C[C@@H]1C[C@]1(NC(=O)[C@@H]1C[C@@H](Oc2cc(-c3ccccc3)nc3cc(OC)ccc23)CN1C(=O)[C@@H](CC(=O)N1CCC(C(=O)NC)CC1)C(C)(C)C)C(=O)NS(=O)(=O)C1CC1` [Compound 78]: < 1000 nM; for `C=C[C@@H]1C[C@]1(NC(=O)[C@@H]1C[C@@H](Oc2cc(-c3ccccc3)nc3cc(OC)ccc23)CN1C(=O)[C@@H](CC(=O)N1CC2CCC1C2)C(C)(C)C)C(=O)NS(=O)(=O)C1CC1` (stereo partly drawn) [Compound 79, (2S,4R)-1-((2S)-2-(2-(2-azabi-cyclo[2.2.1]heptan-2-yl)-2-oxoethyl)-3,3-dimethylbutanoyl)-N-((1R,2S)-1-(cyclopropyl-sulfonylcarbamoyl)-2-vinylcyclopropyl)-4-(7-methoxy-2-phenylquinolin-4-yloxy)pyrrolidine-2-carboxamide]: < 1000 nM. On to `C=C[C@@H]1C[C@]1(NC(=O)[C@@H]1C[C@@H](Oc2cc(-c3ccccc3)nc3cc(OC)ccc23)CN1C(=O)[C@@H](CC(=O)N1CCC(C(F)(F)F)CC1)C(C)(C)C)C(=O)NS(=O)(=O)C1CC1` [Compound 80, (2S,4R)-1-((S)-2-tert-butyl-4-oxo-4-(4-(trifluoro-methyl)piperidin-1-yl)butanoyl)-N-((1R,2S)-1-(cyclopropyl-sulfonylcarbamoyl)-2-vinylcyclopropyl)-4-(7-methoxy-2-phenylquinolin-4-yloxy)pyrrolidine-2-carboxamide], for which the EC50 was < 1000 nM. The same measure for `C=C[C@@H]1C[C@]1(NC(=O)[C@@H]1C[C@@H](Oc2cc(-c3ccccc3)nc3cc(OC)ccc23)CN1C(=O)[C@@H](CC(=O)N1CC2CC3CC(C2)CC1C3)C(C)(C)C)C(=O)NS(=O)(=O)C1CC1` [Compound 81]: < 1000 nM. The same measure for `C=C[C@@H]1C[C@]1(NC(=O)[C@@H]1C[C@@H](Oc2cc(-c3ccccc3)nc3cc(OC)ccc23)CN1C(=O)[C@@H](CC(=O)N1CCC(F)CC1)C(C)(C)C)C(=O)NS(=O)(=O)C1CC1` [Compound 82, (2S,4R)-1-((S)-2-tert-butyl-4-(4-fluoropiperidin-1-yl)-4-oxobutanoyl)-N-((1R,2S)-1-(cyclopropyl-sulfonylcarbamoyl)-2-vinylcyclopropyl)-4-(7-methoxy-2-phenylquinolin-4-yloxy)pyrrolidine-2-carboxamide]: < 1000 nM. The same measure for `C=C[C@@H]1C[C@]1(NC(=O)[C@@H]1C[C@@H](Oc2cc(-c3ccccc3)nc3cc(OC)ccc23)CN1C(=O)[C@@H](CC(=O)N1CCCC(F)C1)C(C)(C)C)C(=O)NS(=O)(=O)C1CC1` (stereo partly drawn) [Compound 83, (2S,4R)-1-((2S)-2-tert-butyl-4-(3-fluoropiperidin-1-yl)-4-oxobutanoyl)-N-((1R,2S)-1-(cyclopropyl-sulfonylcarbamoyl)-2-vinylcyclopropyl)-4-(7-methoxy-2-phenylquinolin-4-yloxy)pyrrolidine-2-carboxamide]: < 1000 nM; for `C=C[C@@H]1C[C@]1(NC(=O)[C@@H]1C[C@@H](O)CN1C(=O)[C@@H](CC(=O)N1CCCCC1)C(C)(C)C)C(=O)NS(=O)(=O)C1CC1` [Compound 84, (2S,4R)-1-((S)-2-tert-butyl-4-oxo-4-(piperidin-1-yl)butanoyl)-N-((1R,2S)-1-(cyclo-propylsulfonyl-carbamoyl)-2-vinylcyclopropyl)-4-hydroxypyrrolidine-2-carboxamide]: 1000 to 10000 nM.

Consider `C=C[C@H]1C[C@]1(NC(=O)[C@@H]1C[C@@H](Oc2cc(-c3ccccc3)nc3cc(OC)ccc23)CN1C(=O)[C@@H](CC(=O)N1CCCCC1)C1CCCC1)C(=O)NS(=O)(=O)C1CC1` [Compound 86, (2S,4R)-1-((S)-2-cyclopentyl-4-oxo-4-(piperidin-1-yl)butanoyl)-N-((1R,2R)-1-(cyclo-propylsulfonyl-carbamoyl)-2-vinylcyclopropyl)-4-(7-methoxy-2-phenylquinolin-4-yloxy)pyrrolidine-2-carboxamide], for which the EC50 is < 1000 nM.

With `C=C[C@@H]1C[C@]1(NC(=O)[C@@H]1C[C@@H](Oc2cc(-c3ccccc3)nc3cc(OC)ccc23)CN1C(=O)[C@@H](CC(=O)N1CCCC1)C(C)(C)C)C(=O)NS(=O)(=O)C1CC1` [Compound 87, (2S,4R)-1-((S)-2-tert-butyl-4-oxo-4-(pyrrolidin-1-yl)butanoyl)-N-((1R,2S)-1-(cyclo-propylsulfonyl-carbamoyl)-2-vinylcyclopropyl)-4-(7-methoxy-2-phenylquinolin-4-yloxy)pyrrolidine-2-carboxamide], the EC50 was < 1000 nM. As to `C=C[C@@H]1C[C@]1(NC(=O)[C@@H]1C[C@@H](Oc2cc(-c3ccccc3)nc3cc(OC)ccc23)CN1C(=O)[C@@H](CC(=O)N1CCC[C@H]1C(=O)N(C)C)C(C)(C)C)C(=O)NS(=O)(=O)C1CC1` [Compound 88, (2S,4R)-1-((S)-2-tert-butyl-4-((S)-2-(dimethylcarbamo-yl)pyrrolidin-1-yl)-4-oxobutanoyl)-N-((1R,2S)-1-(cyclopropylsulfonyl-carbamoyl)-2-vinylcyclopropyl)-4-(7-methoxy-2-phenylquinolin-4-yloxy)pyrrolidine-2-carboxamide], the EC50 was < 1000 nM. Regarding `C=C[C@@H]1C[C@]1(NC(=O)[C@@H]1C[C@@H](Oc2cc(-c3ccccc3)nc3cc(OC)ccc23)CN1C(=O)[C@@H](CC(=O)N1CCC(F)(F)C1)C(C)(C)C)C(=O)NS(=O)(=O)C1CC1` [Compound 89, (2S,4R)-1-((S)-2-tert-butyl-4-(3,3-difluoropyrrolidin-1-yl)-4-oxobutanoyl)-N-((1R,2S)-1-(cyclopropylsulfonyl-carbamoyl)-2-vinylcyclopropyl)-4-(7-methoxy-2-phenylquinolin-4-yloxy)pyrrolidine-2-carboxamide], the EC50 is < 1000 nM.

Turning to `C=C[C@@H]1C[C@]1(NC(=O)[C@@H]1C[C@@H](Oc2cc(-c3ccccc3)nc3cc(OC)ccc23)CN1C(=O)[C@@H](CC(=O)N1CCC(N(C)C)C1)C(C)(C)C)C(=O)NS(=O)(=O)C1CC1` (stereo partly drawn) [Compound 90, (2S,4R)-1-((2S)-2-tert-butyl-4-(3-(dimethylamino)pyr-rolidin-1-yl)-4-oxobutanoyl)-N-((1R,2S)-1-(cyclopropylsulfonyl-carbamoyl)-2-vinylcyclopropyl)-4-(7-methoxy-2-phenylquinolin-4-yloxy)pyrrolidine-2-carboxamide], the EC50 fell in the range of 1000 to 10000 nM. As for `C=CC1C[C@]1(NC(=O)[C@@H]1C[C@@H](Oc2cc(-c3ccccc3)nc3cc(OC)ccc23)CN1C(=O)[C@@H](CC(=O)N1CCCCC1)CC(C)C)C(=O)NS(=O)(=O)C1CC1` (stereo partly drawn) [Compound 91, (2S,4R)-N-((1R,2R)-1-(cyclopropyl-sulfonylcarbamoyl)-2-vinylcyclopropyl)-4-(7-methoxy-2-phenylquinolin-4-yloxy)-1-((R)-4-methyl-2-(2-oxo-2-(piperidin-1-yl)ethyl)pentano-yl)pyrrolidine-2-carboxamide], the figure is < 1000 nM. The same measure for `C=C[C@@H]1C[C@]1(NC(=O)[C@@H]1C[C@@H](Oc2cc(-c3ccccc3)nc3cc(OC)ccc23)CN1C(=O)[C@@H](CC(=O)N1CCCCC1)C(C)(C)C)C(=O)NS(=O)(=O)C1CCCCC1` [Compound 92, (2S,4R)-1-((S)-2-tert-butyl-4-oxo-4-(piperidin-1-yl)butanoyl)-N-((1R,2S)-1-(cyclo-hexylsulfonyl-carbamoyl)-2-vinyl-cyclopropyl)-4-(7-methoxy-2-phenylquinolin-4-yloxy)pyrrolidine-2-carboxamide]: < 1000 nM.

On to `C=C[C@@H]1C[C@]1(NC(=O)[C@@H]1C[C@@H](OC(=O)Nc2ccccc2C(=O)OC)CN1C(=O)[C@@H](CC(=O)N1CCCCC1)C(C)(C)C)C(=O)NS(=O)(=O)C1CC1` [Compound 93, methyl 2-(((3R,5S)-1-((S)-2-tert-butyl-4-oxo-4-(piperidin-1-yl)butanoyl)-5-((1R,2S)-1-(cyclo-propylsulfonyl-carbamoyl)-2-vinylcyclopropyl-carbamoyl)pyrrolidin-3-yloxy)carbonyl-amino)benzoate], for which the EC50 was < 1000 nM. `C=C[C@@H]1C[C@]1(NC(=O)[C@@H]1C[C@@H](OC(=O)Nc2ccccc2C(=O)OCC)CN1C(=O)[C@@H](CC(=O)N1CCCCC1)C(C)(C)C)C(=O)NS(=O)(=O)C1CC1` [Compound 94]: the EC50 was < 1000 nM.
